Patent publication US20240417393A1, “CERTAIN 2,5-DIAZABICYCLO[4.2.0]OCTANES AS GLP-1 RECEPTOR MODULATORS” (ASTRAZENECA AB, priority 2021, published 2024)
pEC50: −log10 of the molar value.

Columns and labels:
[1] = target: T1, GLP-1R in a pancreatic insulinoma cell line (EndoC-PH1) (Homo sapiens, UniProt P43220); experiment: EndoC cAMP Accumulation Assay (HTRF); type: cell-based; settings: EndoC-PH1 human pancreatic beta cell line, endogenous GLP-1R, 30 min at rt
T1 construct: host or cells: EndoC-βH1 human pancreatic beta cell line
T1 sequence (P43220 24-463): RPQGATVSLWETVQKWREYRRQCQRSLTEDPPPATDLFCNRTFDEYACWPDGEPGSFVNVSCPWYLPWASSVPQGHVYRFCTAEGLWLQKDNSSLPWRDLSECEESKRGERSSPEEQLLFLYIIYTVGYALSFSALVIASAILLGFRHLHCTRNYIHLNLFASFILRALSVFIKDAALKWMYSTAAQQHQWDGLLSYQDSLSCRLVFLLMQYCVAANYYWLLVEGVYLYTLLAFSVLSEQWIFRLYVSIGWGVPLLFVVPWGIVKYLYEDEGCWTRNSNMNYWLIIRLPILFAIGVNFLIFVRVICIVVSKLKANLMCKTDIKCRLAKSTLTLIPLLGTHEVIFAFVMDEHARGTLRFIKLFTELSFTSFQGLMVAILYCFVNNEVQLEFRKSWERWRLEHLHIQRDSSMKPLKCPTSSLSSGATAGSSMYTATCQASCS
Source text: EndoC cAMP Accumulation Assay
A HTRF cAMP assay (cAMP Gs dynamic kit; CisoBio Cat #62AM4PEJ) was used to identify agonists of GLP-1R in a pancreatic insulinoma cell line (EndoC-PH1). […] EndoC-PHlcells have detectable GLP-1R messenger ribonucleic acid (mRNA) as detected by quantitative polymerase chain reaction (qPCR). […] The EndoC-PH1 cell line is a valid model of human beta cells and applicable for screenings to identify novel drug target candidates (Mol. Metab., 2018, 8, 144-157). CisBio HTRF cAMP kits are based on a competitive immunoassay using cryptate-labelled anti-cAMP antibody and d2-labeled cAMP. The detection kit is intended for the direct is quantitative determination of cAMP. The specific signal (i.e. energy transfer) is inversely proportional to the concentration of cAMP in the standard or sample. Test compounds (10 mM in DMSO) were diluted into assay buffer (HBSS (Sigma #H8264) supplemented with 25 mM HEPES (Gibco #15630, pH 7.4), 0.1% BSA (Sigma #A3059) and 0.5 mM IBMX (Sigma #I7018) included fresh on the day of the assay) into 96 well U-bottom plates (Greiner #650201). Diluted compounds were transferred to ECHO source polypropelene plates (Labcyte #P-05525) and dose response curves were dispensed acoustically using ECHO 550 into black shallow-well u-bottom 384-well HTRF Assay Plates (Corning 4514). Cryovials of EndoC-H1 (supplied at 1×10e^7 cells/vial) were used directly for screening. The cryovials and were removed from N2(1) and thawed rapidly in a 37° C. water bath. The cells were resuspended in assay buffer and centrifuged at 300 g for 5 min. Cells were resuspended in assay buffer at the appropriate concentration, typically at 12e5 cells per mL (3000 cells per well, dependent on cell batch) and 2.5 μL diluted cells were added to all wells of destination plate by Multidrop combi reagent dispenser (Thermofisher). The plates were incubated at rt for 30 min. The assay was stopped by adding 2.5 μL anti-cAMP cryptate solution to all wells and 2.5 μL cAMP-d2 solution (both diluted 1:20 in lysis buffer) to columns 1-22 by Combi drop. A volume of 2.5 μL cAMP-d2 solution was added to wells E23 to P24 and 2.5 μL lysis buffer added to wells A23 to D24 by multichannel pipette. The plates were incubated at rt for 1 h and read on an Envision plate reader using excitation wavelength of 320 nm and emission of […] and 660 nm.
Raw data from Envision is converted to % DeltaF according to the manufacturer's instructions. Dose response curves are analysed via 4-Parameter Logistical Analysis and assay plate Z’ values obtained. Samples are graphed as percentage (%) activation plots compared to […] with assay window defined by negative control as basal cell is cAMP levels and positive control are defined by maximum GIP (82.5 nM) signal. GLP-1 (7-36 amide, Bachem H-6795) dose response curve was included on all plates.

human GLP-1R receptor = target: T2, human GLP-1R receptor (Homo sapiens, UniProt P43220, L260F); experiment: CHOK1 GLP-1R cAMP Assay (HTRF); type: cell-based; settings: CHO-K1 cells stably expressing human GLP-1R (Leu260Phe variant), 20 min at rt
T2 construct: expressed in transfected cells; host or cells: CHO-K1 (ATCC CCL-61)
T2 sequence (P43220 24-463 L260F): as the sequence (P43220 24-463) above, with L237F counted along it
Procedure: A cell line stably expressing the human GLP-1R receptor (NM_002062.5, including the naturally-occurring variant Leu260Phe) in a CHO-K1 (ATCC® CCL-61™) was used for assay.
GLP-1 receptor mediated agonist activity was determined in a cell-based assay measuring cyclic adenosine monophosphate (cAMP) levels in cells using Homogeneous Time-Resolved Fluorescence (HTRF) cAMP detection kit (CisBio catalog #62AM4PEC, cAMP Gs Dynamic range kit). The cAMP detection method is based on a competitive immunoassay, in which cAMP produced by the cells and cAMP labeled with the dye d2 compete for binding to a Europium-Cryptate-labeled anti-cAMP antibody. The specific HTRF signal is inversely proportional to the concentration of cAMP.
Compounds were added to individual well in 384 well-assay plates (Greiner #784076) using an Echo (LabCyte) dispenser from 10 mM stocks. Varying concentration of compounds were added to wells, and DMSO was used to normalize each well to a volume of 100 nL. A dose response curve of GLP-1(7-36)NH2 (Bachem H-6795) was included in each run. 5 μL of cAMP concentration response standards are applied in specified wells in the assay plates. Cryo-preserved cells are thawed and resuspended in assay buffer pre-heated to 37° C. (20 mM 2-[4-(2-hydroxyethyl)piperazin-1-yl]ethanesulfonic acid (HEPES) pH 7.4, 1× Hank's Balanced Salt Solution (HBSS, Life Technologies #14065) supplemented with 0.1% (w/v) bovine serum albumin (Sigma, A-7030)). Cells were centrifuged at 250*g for 5 min at rt, and resuspended in room tempered assay buffer to a final density of 0.16*10^6 cell/mL, to deliver 800 cells/well. 5 μL of assay buffer with 1 mM 3-isobutyl-1-methylxanthin (IBMX; Sigma cat I-7018) was dispensed per well in assay plates using a multidrop combi (Thermo Scientific) subsequently 5 μL of cell suspension was distributed to relevant wells in the assay using a multidrop dispenser. Assay plates were incubated 20 min at rt.
Detection reagents, Europium-Cryptate-labeled anti-cAMP antibody and cAMP labeled with the dye d2, are diluted in lysis buffer, provided by the manufacturer. 5 μL of each detection reagent is supplemented to each assay well using a multidrop dispenser. Assay plates are incubated in the dark for at least one h. The HTRF signal is measured using the HTRF module (excitation: 337 nm, emission A: 665 nm and emission B: 620 nm) in Pherastar FSX (BMG Labtech).
Raw data were converted to pM cAMP using the cAMP standard curve included in each run. Converted data were further analyzed in Genedata Screener (Genedata) and EC50 determinations were made from agonist dose-response curves analyzed with a curve fitting is program using a 4-parameter logistic dose response equation (Equation y=A+((B-A)/1+((C/x)^D))) where A is no stimulation, B is full stimulation, C is the EC50 and D is the Hill slope). The percent effect was determined relative to a saturating concentration of a full GLP-1R agonist (GLP-1(7-36)NH2 has 100% effect in this assay setup).

Row | Compound | pEC50 [1] | pEC50 (human GLP-1R receptor)
1 | C[C@]1(c2ccc(Cl)cc2F)Oc2cccc(N3CCN(Cc4nc5ccc(C(=O)O)cc5n4C[C@@H]4CCO4)[C@H]4CC[C@H]43)c2O1 (single isomer, unassigned) [Example 18c] | 8.00 | 8.24
2 | C[C@]1(c2ccc(Cl)cn2)Oc2cccc(N3CCN(Cc4nc5ccc(C(=O)O)cc5n4C[C@@H]4CCO4)[C@H]4CC[C@H]43)c2O1 (single isomer, unassigned) [Example 5d, 2-((1R*,6S*)-5-(R*)-2-(5-Chloropyridin-2-yl)-2-methylbenzo[d][1,3]dioxol-4-yl)-2,5-diazabicyclo[4.2.0]octan-2-yl)methyl)-1-(((S)-oxetan-2-yl)methyl)-1H-benzo[d]imidazole-6-carboxylic acid] | 8.07 | 8.33
3 | C[C@]1(c2ccc(Cl)cc2F)Oc2cccc(N3CCN(Cc4nc5ccc(C(=O)O)cc5n4C[C@@H]4CCO4)[C@H]4CC[C@H]43)c2O1 (single isomer, unassigned) [Example 18b, 2-((1R*,6S*)-5-(R*)-2-(4-Chloro-2-fluorophenyl)-2-methylbenzo[d][1,3]dioxol-4-yl)-2,5-diazabicyclo[4.2.0]octan-2-yl)methyl)-1-(((S)-oxetan-2-yl)methyl)-1H-benzo[d]imidazole-6-carboxylic acid] | 6.32 | 6.92
4 | C[C@]1(c2ccc(Cl)cc2F)Oc2cccc(N3CCN(Cc4nc5ccc(C(=O)O)cc5n4C[C@@H]4CCO4)[C@H]4CC[C@H]43)c2O1 (single isomer, unassigned) [Example 18a, 2-(((1R*,6S*)-5-((R*)-2-(4-Chloro-2-fluorophenyl)-2-methylbenzo[d][1,3]dioxol-4-yl)-2,5-diazabicyclo[4.2.0]octan-2-yl)methyl)-1-(((S)-oxetan-2-yl)methyl)-1H-benzo[d]imidazole-6-carboxylic acid] | 8.48 | 9.01
5 | CC1(c2ccc(Cl)cn2)Oc2cccc(N3CCN(Cc4nc5c(F)cc(C(=O)O)cc5n4CCOC4CC4(F)F)[C@H]4CC[C@@H]43)c2O1 (mixture of isomers) [Example 14, rac-2-(((1R,6R)-5-(2-(5-Chloropyridin-2-yl)-2-methylbenzo[d][1,3]dioxol-4-yl)-2,5-diazabicyclo[4.2.0]octan-2-yl)methyl)-1-(2-(2,2-difluorocyclopropoxy)ethyl)-4-fluoro-1H-benzo[d]imidazole-6-carboxylic acid] | 7.42 | 7.35
6 | COc1cc(C(=O)O)cc2c1nc(CN1CCN(c3cccc4c3O[C@@](C)(c3ccc(Cl)cn3)O4)[C@@H]3CC[C@@H]31)n2C[C@@H]1CCCO1 (relative stereo) [Example 8b, 2-((1R*,6S*)-5-(R*)-2-(5-Chloropyridin-2-yl)-2-methylbenzo[d][1,3]dioxol-4-yl)-2,5-diazabicyclo[4.2.0]octan-2-yl)methyl)-4-methoxy-1-(((S)-tetrahydrofuran-2-yl)methyl)-1H-benzo[d]imidazole-6-carboxylic acid] | 6.23 | 6.40
7 | COc1cc(C(=O)O)cc2c1nc(CN1CCN(c3cccc4c3OC(C)(c3ccc(Cl)cn3)O4)[C@H]3CC[C@@H]31)n2CCOC1CC1(F)F (mixture of isomers) [Example 13, rac-2-(((1R,6R)-5-(2-(5-Chloropyridin-2-yl)-2-methylbenzo[d][1,3]dioxol-4-yl)-2,5-diazabicyclo[4.2.0]octan-2-yl)methyl)-1-(2-(2,2-difluorocyclopropoxy)ethyl)-4-methoxy-1H-benzo[d]imidazole-6-carboxylic acid] | – | 8.28
8 | C[C@]1(c2ccc(Cl)cn2)Oc2cccc(N3CCN(Cc4nc5c(Cl)cc(C(=O)O)cc5n4C[C@@H]4CCO4)[C@H]4CC[C@H]43)c2O1 (relative stereo) [Example 20a, 4-Chloro-2-(((1R*,6S*)-5-((R*)-2-(5-chloropyridin-2-yl)-2-methylbenzo[d1[1,3]dioxol-4-yl)-2,5-diazabicyclo[4.2.0]]octan-2-yl)methyl)-1-(((S)-oxetan-2-yl)methyl)-1H-benzo[d]imidazole-6-carboxylic acid] | – | 7.38

The remaining lines, values ahead:

Row | pEC50 [1] | pEC50 (human GLP-1R receptor) | Compound
9 | 7.80 | 7.49 | C[C@]1(c2ccc(Cl)cn2)Oc2cccc(N3CCN(Cc4nc5c(F)cc(C(=O)O)cc5n4CC4(C#N)CC4)[C@H]4CC[C@@H]43)c2O1 (single isomer, unassigned) [Example 24a]
10 | 6.59 | 6.89 | COc1cc(C(=O)O)cc2c1nc(CN1CCN(c3cccc4c3O[C@@](C)(c3ccc(Cl)cn3)O4)[C@H]3CC[C@@H]31)n2CC1(C#N)CC1 (single isomer, unassigned) [Example 25a]
11 | 6.70 | 7.19 | COc1cc(C(=O)O)cc2c1nc(CN1CCN(c3cccc4c3O[C@@](C)(c3ccc(Cl)cn3)O4)[C@H]3CC[C@@H]31)n2CCOC1CC1 (relative stereo) [Example 27, rel-2-(((1R,6R)-5-((R)-2-(5-Chloropyridin-2-yl)-2-methylbenzo[d][1,3]dioxol-4-yl)-2,5-diazabicyclo[4.2.0]octan-2-yl)methyl)-1-(2-cyclopropoxvethyl)-4-methoxy-1H-benzo[d]imidazole-6-carboxylic acid]
12 | 6.35 | 6.46 | C[C@]1(c2ccc(Cl)cn2)Oc2cccc(N3CCN(Cc4nc5c(Cl)cc(C(=O)O)cc5n4CC4(CC#N)CC4)[C@H]4CC[C@@H]43)c2O1 (single isomer, unassigned) [Example 26a]
13 | – | 6.85 | C[C@]1(c2ccc(Cl)cn2)Oc2cccc(N3CCN(Cc4nc5c(Cl)cc(C(=O)O)cc5n4C[C@@H]4CCO4)[C@H]4CC[C@H]43)c2O1 (single isomer, unassigned) [Example 20b, 4-Chloro-2-(((1R*,6S*)-5-((R*)-2-(5-chloropyridin-2-yl)-2-methylbenzo[d][1,3]dioxol-4-yl)-2,5-diazabicyclo[4.2.0]octan-2-yl)methyl)-1-(((S)-oxetan-2-yl)methyl)-1H-benzo[d]imidazole-6-carboxylic acid]
